In PubChem BioAssay AID2305 (GlaxoSmithKline (GSK), 2010):
Values joined by “and” are separate entries in the source; they are usually repeats but may differ in a detail not shown here. Identical values can stand only once.

These compounds were tested on P. falciparum 3D7 growth, pLDH absorbance (assay: blood-stage malaria parasite growth potency – strain 3D7, dose response (AID 2305)).
Compound `O=C(Nc1cccc(CN2CCCN(CC3CC3)CC2)c1)c1ccc(Cl)c(Cl)c1` has an IC50 of 1030 nM.
With `Oc1ccc(Br)cc1-c1nc2ccc(Cl)cc2nc1-c1cc(Br)ccc1O` the IC50 was 790 nM.
Work on `N#CC1(CCCNCCc2ccc(O)cc2)CCCc2c(O)cccc21` (configuration not stated) yielded an IC50 of 760 nM.
`O=[N+]([O-])c1ccc(/C=N/Nc2cc(-c3ccccc3)nc3ccccc23)o1` gave an IC50 of 860 nM.
In the case of `Cc1ccc2nc(-c3cc(-c4ccc(OCc5ccccc5)cc4)cnc3N)[nH]c2c1`, the IC50 is reported as 1680 nM.
`CCOC(=O)NC1=NC(C)(C)N(OCc2ccc(Cl)c(Cl)c2)C(NC(=O)OCC)=N1` gave an IC50 of 280 nM.
`COc1cc(CCN(C)Cc2ccc(OC)c(OC)c2)ccc1NC(=O)c1cccc2c(=O)c3cccc(F)c3[nH]c12` was tested, and the IC50 was 200 nM.
Compound `CCCNC(=O)c1cncc(-c2ccc(CNCCCc3ccccc3)cc2)c1` has an IC50 of 690 nM.
For `Cc1ccc(CN2CCN(c3cc4c(cc3Cl)CCN4C(=O)Cc3ccc(Cl)c(NC(=O)Nc4cccc(C#N)c4)c3)CC2)cc1`, the IC50 was 1130 nM.
For `COc1cccc2c1CCN(CCN1CCC(CNC(=O)c3ccc(-c4ccc(C#N)cc4)cc3)CC1)C2`, the IC50 was 760 nM.
Work on `c1cc(CN2CCCCC2)cc(-c2ccc(-c3nc4ccccc4[nH]3)s2)c1` yielded an IC50 of 870 nM.
`Cc1cc(N[C@@H](Cc2ccccc2)C(=O)NCCOc2ccccc2)nc(NCC2CCCCC2)n1` was tested, and the IC50 was 850 nM.
In the case of `FC(F)(F)Oc1cccc(CNc2noc(-c3sccc3Br)n2)c1`, the IC50 is reported as 880 nM.
`COc1cc(NC(=O)c2sc(-c3ccc(Cl)cc3)cc2NC(=O)CN2CCCC2)ccc1OCCN1CCCC1` was tested, and the IC50 was 930 nM.
In the case of `O=C(/C=C/c1ccccc1Cl)NC1CCC(CN2CCC(c3c[nH]c4ccccc34)CC2)CC1` (configuration not stated), the IC50 is reported as 600 nM and 850 nM.
For `Cc1ccc(NCC(=O)Nc2ccc(F)c(Cl)c2)cc1S(=O)(=O)N1CCOCC1`, the IC50 was 60 nM.
Work on `CO/C(=C\C=C\c1cc2cc(Cl)c(Cl)cc2[nH]1)C(=O)Nc1ccc(NCCN(C)C)nc1` yielded an IC50 of 770 nM.
In the case of `CN1CCN(c2ccc(Nc3c(C(N)=O)cnc4cc(-c5ccoc5)ccc34)cc2)CC1`, the IC50 is reported as 810 nM.
`COC(=O)c1cccc(NC(=O)NC2CCN(c3ccnc(NCc4ccc(F)cc4)n3)CC2)c1` was tested, and the IC50 was 810 nM.
For `N#Cc1ccc(/C=C/C(=O)NCCCCCN2CCCN(C(=O)Nc3ccc(Cl)c(C(F)(F)F)c3)CC2)cc1`, the IC50 was 440 nM.
For `CCCCN(Cc1cnccc1-c1ccc(Br)cc1)c1ccc(C(O)(C(F)(F)F)C(F)(F)F)cc1`, the IC50 was 1060 nM.
For `NOCCCOc1ccc(Cl)cc1`, the IC50 was 570 nM.
For `CC(C)CN(c1nc(C(=O)NNC(=O)[C@H](CC2CC2)NC(=O)c2cc3cc(OCCN4CCCCC4)ccc3o2)cs1)C1CC1`, the IC50 was 210 nM.
In the case of `Cc1ccc2nc(-c3ccccc3)cc(NN=Cc3cccnc3)c2c1`, the IC50 is reported as 690 nM.
With `O=C1C(c2ccccc2)=C(Nc2cccc([N+](=O)[O-])c2)c2ccccc21` the IC50 was 890 nM.
With `COc1ccc(-c2cccc(NC(=O)c3ccc(Cl)cc3)c2)cc1CN1CCC(O)CC1` the IC50 was 790 nM.
`CCc1[nH]nc(C(=O)Nc2cccc(N3CCCC3)c2)c1C` was tested, and the IC50 was 1460 nM.
With `CCC(O)(C#Cc1c(C)nc(N)nc1N)CC` the IC50 was 640 nM.
`CC(=O)Nc1ccc(C(=O)NC2CCN(c3ccnc4cc(Cl)ccc34)C2)cc1` (configuration not stated) gave an IC50 of 810 nM.
For `CN(CCCc1c[nH]c2ccccc12)CC1CCN(C(=O)/C=C/c2ccc(Cl)c(Cl)c2)CC1`, the IC50 was 750 nM.
`O=C(Nc1ccc(Cl)cc1)Nc1ccc2nonc2c1` gave an IC50 of 1100 nM.
With `Cc1nnsc1C(=O)Nc1cccc(-c2cccc(-c3nc4ccccc4[nH]3)c2)c1` the IC50 was 440 nM.
`COCCNCc1cccc(-c2ccc3nccc(Nc4cc(O)ccc4C)c3c2)c1` gave an IC50 of 750 nM.
`CCCN1CCN(CCCNc2c3ccccc3nc3ccccc23)CC1` gave an IC50 of 550 nM.
In the case of `O=C(c1ccccc1F)N(Cc1ccc(Cl)cc1)c1ccccn1`, the IC50 is reported as 1020 nM.
`CCC(C)C#Cc1c(C)nc(N)nc1N` (configuration not stated) was tested, and the IC50 was 260 nM.
In the case of `CC(=O)c1ccc(-c2cccc3c(CC(=O)Nc4ccc5nccc(N6CCN(C)CC6)c5c4)cccc23)cc1`, the IC50 is reported as 500 nM.
`CC(C)=CCc1c(-c2ccc(O)cc2O)oc2c3c(cc(O)c2c1=O)OC(C)(C)C=C3` was tested, and the IC50 was 980 nM.
`COc1ccc(Nc2nc(NCc3cccc(NS(C)(=O)=O)c3)cc(-c3ccc(OC)cc3)n2)cc1` was tested, and the IC50 was 1220 nM.
Work on `O=C(Nc1ccnc(N2C[C@H]3C[C@@H]2CN3Cc2cccc(O)c2)c1)c1ccc(F)cc1` yielded an IC50 of 1240 nM.
`Cc1cccc(N2C(N)=NC(N)=NC2(C)C)c1C` gave an IC50 of 760 nM.
`CCOC(=O)c1ccc(Nc2cc(Nc3ccc(C(=O)OCC)cc3)nc(C)n2)cc1` was tested, and the IC50 was 910 nM.
`CC[C@H]1CN2CC[C@H]1C[C@H]2[C@H](O)c1cc(-c2ccc(Cl)c(Cl)c2)nc2ccc(OC)cc12` gave an IC50 of 120 nM.
`O=C(Nc1ccc(Cl)cc1)Nc1ccc2c(c1)N1CCN=C1S2` showed an IC50 of 590 nM.
`FC(F)c1nc2ccccc2n1-c1nc(N2CCOCC2)nc(N2CCOCC2)n1` gave an IC50 of 760 nM.
`CCC(CC)N1C(=O)C(c2ccccc2)(c2ccccc2)N=C1N` gave an IC50 of 800 nM.
For `N/C(=N\c1ncccn1)Nc1cccc(Cc2ccccc2)n1`, the IC50 was 930 nM.
`COc1cc(NC(=O)c2cc([N+](=O)[O-])ccc2NC(=O)CNC2CCCCC2C)cc(OC)c1` (configuration not stated) showed an IC50 of 1730 nM.
`Cc1cccc2[nH]c(-c3ccc(-c4ccc(NC(=O)C(C)CN(C)C)cc4)cc3)nc12` (configuration not stated) showed an IC50 of 680 nM.
`CN(c1cc(NC(=O)c2ccc(F)cc2)ccn1)C1CCN(Cc2cccc(F)c2)CC1` was tested, and the IC50 was 490 nM.
For `Cc1noc(C)c1-c1cccc(CNCc2ccc(-c3cccc(-c4nc5ccccc5[nH]4)c3)cc2)c1`, the IC50 was 570 nM.
For `Cc1noc(C)c1C(=O)N1CCCC(c2[nH]c3c(C)cccc3c2-c2ccncc2)C1` (configuration not stated), the IC50 was 840 nM.
For `CCCCCCCCc1c(C)[nH]c(C)c(I)c1=O`, the IC50 was 740 nM.
For `O=C(Nc1ccc2c(c1)CCN(C1CCC1)CC2)c1ccc(-c2cn3ccccc3n2)cc1`, the IC50 was 880 nM.
In the case of `CCc1cc(-c2onc(C(F)(F)F)c2-c2ccccc2)c(O)cc1OC`, the IC50 is reported as 790 nM.
Compound `CS(=O)(=O)Nc1ccc2c(C3CCN(CCC4CCN(C(=O)/C=C/c5ccc(Cl)c(Cl)c5)CC4)CC3)c[nH]c2c1` has an IC50 of 600 nM.
Compound `Oc1ccc2nc(NCCCc3ccccc3)nc(NCCCc3ccccc3)c2c1` has an IC50 of 400 nM.
In the case of `c1ccc2c(NCCCCCCCCCNc3c4ccccc4nc4ccccc34)c3ccccc3nc2c1`, the IC50 is reported as 300 nM.
With `CC(C)Cn1c(Sc2ccc(C#N)c([N+](=O)[O-])c2)nnc1-c1cccs1` the IC50 was 1080 nM.
Work on `CC(=O)c1cccc2c(NC(=O)Nc3ccc4nccc(N5CCN(C)CC5)c4c3)cccc12` yielded an IC50 of 400 nM.
`CC(=O)c1sc(Cc2nc3ccccc3s2)nc1C` was tested, and the IC50 was 1070 nM.
`CN(C)CCN(Cc1ccccc1)c1ccc([N+](=O)[O-])cc1C(F)(F)F` was tested, and the IC50 was 780 nM.
In the case of `O=C(NC1CCCCC1)N(Cc1cccc(-c2ccc(CNC3CCCC3)cc2)c1)C1CCN(Cc2ccccc2)CC1`, the IC50 is reported as 950 nM.
Work on `O=C(CSc1ccc(Cl)cc1)NC1CCC(CN2CCC(c3c[nH]c4ccccc34)CC2)CC1` (configuration not stated) yielded an IC50 of 930 nM.
Compound `O=C1CC(C(=O)O)CC(=O)N1` has an IC50 of 760 nM.
`O=c1cc(NCCCNCc2scc3c(Cl)cc(C(F)(F)F)nc23)[nH]c2ccccc12` gave an IC50 of 750 nM.
Compound `CCCNC(=O)C1Cc2c([nH]c3ccc(Br)cc23)C2(CCN(CCc3ccccc3)CC2)N1` (configuration not stated) has an IC50 of 680 nM.
`CN(C)CCCc1cc(NC(=O)Nc2cccc(Cl)c2Cl)ccc1I` showed an IC50 of 540 nM.
For `COc1ccc(NC(=O)[C@H](Cc2ccccc2)Nc2cc(C)nc(NCCOc3ccccc3)n2)cc1`, the IC50 was 1070 nM.
`CN(C(=O)/C=C/c1ccccc1F)C1CCN(CCCCCNC(=O)/C=C/c2ccc(Cl)c(Cl)c2)CC1` was tested, and the IC50 was 510 nM.
`CN1CCN(Cc2ccc(-c3ccc4ncnc(Nc5ccc(OCc6ccccc6)cc5)c4c3)o2)CC1` gave an IC50 of 690 nM.
In the case of `CC(C)Cn1ccc2c3c(N)nc(N)nc3ccc21`, the IC50 is reported as 30 nM.
Work on `CC(C#N)Cc1ccc(-c2cnc(N)c3cc(-c4ccnc(N)n4)ccc23)cc1` (configuration not stated) yielded an IC50 of 990 nM.
Compound `CC(C)(C)c1ccc(-c2ccccc2CNC(=O)c2cccc(O)c2)cc1` has an IC50 of 270 nM.
In the case of `Cc1cc(NCCC(=O)Nc2ccccc2)nc(NCC2CCCCC2)n1`, the IC50 is reported as 840 nM.
For `CCn1c(-c2nonc2N)nc2c(-c3cccc(NC(=O)Nc4ccccc4OC)c3)ncc(OCCCN)c21`, the IC50 was 1000 nM.
`CC1CCCC(NC(=O)CCOc2ccccc2)C1` (configuration not stated) showed an IC50 of 880 nM.
`COc1ccc(NC(=O)Nc2cccc(-c3cccc(-c4nc5ccc(F)cc5[nH]4)c3)c2)cc1` showed an IC50 of 170 nM.
In the case of `COCCN1CCN(Cc2ccc(-c3cccc(-c4nc5ccccc5[nH]4)c3)cc2)CC1`, the IC50 is reported as 1110 nM.
`Cc1nc2nc(N)nc(N)c2c(C)c1Cc1c(Cl)cccc1Cl` gave an IC50 of 50 nM.
`CC1CN(c2ccc(NC(=O)c3cccs3)cc2)CCN1Cc1cccc(F)c1` (configuration not stated) was tested, and the IC50 was 490 nM.
With `COc1cc2nccc(Nc3ccc(NC(=O)c4ccc(C)cc4)c(O)c3)c2cc1OC` the IC50 was 170 nM.
With `CCCc1c(C(=O)Nc2ccc3c(c2)CCN(C2CCC2)CC3)cnn1-c1ccc(Cl)cc1` the IC50 was 860 nM.
With `N#Cc1cccc(NC(=O)Nc2ccc(-c3ccc(-c4nc5ccc(C(F)(F)F)cc5[nH]4)cc3)cc2)c1` the IC50 was 140 nM.
In the case of `COc1ccc(-c2cc(-c3ccc(S(C)(=O)=O)cc3)cnc2N)cn1`, the IC50 is reported as 190 nM.
In the case of `Cc1[nH]c2ccc(-c3ccc(OC(F)(F)F)cc3)cc2c(=O)c1C#N`, the IC50 is reported as 20 nM.
Work on `COCCn1c(-c2cccc(Cl)c2)nn(-c2ccc([N+](=O)[O-])cc2Cl)c1=S` yielded an IC50 of 740 nM.
`COc1ccc(C2CCN(C#N)C2)cc1OC1CCCC1` (configuration not stated) gave an IC50 of 230 nM.
Compound `CN1CCN(c2ccc3nccc(CCN4CCC(NCc5ccc6c(n5)NC(=O)CO6)CC4)c3n2)CC1` has an IC50 of 820 nM.
Compound `COc1cc(C)nc2ccc(NC(=O)Nc3ccc4nc(C)cc(OC)c4c3)cc12` has an IC50 of 550 nM.
`O=C(NCCCNc1nc2ccccc2[nH]1)c1cccc(OC(F)(F)F)c1` showed an IC50 of 570 nM.
For `COc1ccc(-c2cncc3ccc(C(=O)NCc4ccncc4)nc23)cc1`, the IC50 was 740 nM.
`CCCCCCCc1c(C)[nH]c2cccc(OC)c2c1=O` showed an IC50 of 1130 nM.
`Cc1cccc(C(=O)Nc2ccnc(N3CCC(N(C)Cc4cccc(C#N)c4)CC3)c2)c1` was tested, and the IC50 was 1100 nM.
With `Cc1ccc(C)c2sc(N(CCCn3ccnc3)C(=O)C=Cc3cccs3)nc12` the IC50 was 1060 nM.
`O=C(/C=C/c1ccc(I)cc1)NCCCCCN1CCC(c2c[nH]c3ccccc23)CC1` was tested, and the IC50 was 840 nM.
With `COc1ccc(Nc2nccc(-c3ccc4ccnc(NCCCCN)c4c3)n2)cc1` the IC50 was 750 nM.
`CN(C)Cc1ccc(-c2cc3c(Nc4ccc(OCc5cccc(F)c5)c(Cl)c4)ncnc3s2)[nH]1` gave an IC50 of 820 nM.
`Nc1c(Cl)cc(C(O)CNCCCCCOCCCc2ccc3ncccc3c2)cc1Cl` (configuration not stated) was tested, and the IC50 was 980 nM.
`Cc1ccc2c(c1)c(C1CCN(C(=O)c3ccc([N+](=O)[O-])o3)CC1)cn2C` was tested, and the IC50 was 750 nM.
With `Clc1ccc(CNc2ccnc(NCc3cccnc3N3CCCC3)n2)c(Cl)c1` the IC50 was 1170 nM.
For `CN1CCC(N2CCN(Cc3cccc(-c4ccc(-c5nc6ccc(C(F)(F)F)cc6[nH]5)cc4)c3)CC2)CC1`, the IC50 was 140 nM.
